Results taken from US20090030207A1, “Polymorphs of Dolasetron base and process for preparation thereof” (priority 2007, published 2009).

Key:
[1] = Hygroscopicity: water content after 1 week storage at defined relative humidity; type: physicochemical; settings: for WATER CONTENT: 1 week, 25 ± 2° C.; for INITIAL water content: before storage
Excerpt: Hygroscopicity Table and Stability Measurements of Form G and J

[2] = type: physicochemical; settings: for CRYSTAL FORM: 100% relative humidity, 1 week, 25 ± 2° C.
Excerpt: ARL X-ray powder diffractometer model X'TRA-030, Peltier detector, round standard aluminum sample holder with round zero background quartz plate was used. Scanning parameters: Range: 2-40 deg. 2θ, continuous Scan, Rate: 3 deg./min. The accuracy of peak positions is defined as +/−0.2 degrees due to experimental differences like instrumentations, sample preparations etc. Hygroscopicity Table and Stability Measurements of Form G and J

WATER CONTENT ([1]; 40% relative humidity) [%] | WATER CONTENT ([1]; 60% relative humidity) [%] | WATER CONTENT ([1]; 80% relative humidity) [%] | WATER CONTENT ([1]; 100% relative humidity) [%] | INITIAL water content [1] | crystalline stability (conversion to another polymorph upon storage) [2] | CRYSTAL FORM [2] | Compound
<0.1 | <0.1 | <0.1 | 4.1 | INITIAL water content: 0.1% | stable polymorphic form | B >> G | O=C(O[C@@H]1C[C@@H]2C[C@H]3C[C@H](C1)N2CC3=O)c1c[nH]c2ccccc12 [Form G, Dolasetron base]
<0.1 | <0.1 | 0.2 | 5.5 | INITIAL water content: <0.1% | stable polymorphic form | B >> J | O=C(O[C@@H]1C[C@@H]2C[C@H]3C[C@H](C1)N2CC3=O)c1c[nH]c2ccccc12 [Form J, Dolasetron base]
